Data from PMC8465942, “Cyano- and Ketone-Containing Selenoesters as Multi-Target Compounds against Resistant Cancers” (Cancers, 2021).
“Also recorded” adds a separate entry of the source. Marks after values point to notes of the source that are not given here.

How the values were obtained:
[1] = test system: HeLa (cervical adenocarcinoma); experiment: Cytotoxicity on HeLa cells; type: cell-based; settings: Homo sapiens
Method: (§1) The activity of selenoesters was tested on several cancer cell lines, including HepG2 (hepatocellular carcinoma, CCL-23TM, ATCC); HeLa (cervical adenocarcinoma, CCL-2TM, ATCC); B16 (skin melanoma, CCL-6322TM, ATCC); and a non-cancerous cell line, HDF (human dermal fibroblasts, Sigma-Aldrich). HepG2, HeLa, B16, and HDF cell lines were cultivated in EMEM medium supplemented with 10% FBS, 2 mM L-glutamine, and 1% penicillin-streptomycin mixture. The HaCaT cell line was cultivated in DMEM medium supplemented with 10% FBS and 1% penicillin-streptomycin mixture. All of the cells were cultivated in a CO2 incubator (5% CO2, 37 °C). Twice per week, the cell lines were passaged according to a standardized protocol with a trypsin-EDTA solution.
(§2) The selectivity indexes (SI) were calculated as the ratio of the IC50 value in the non-tumour cells and the IC50 in the cancer cell lines. The compound’s activity towards cancer cells is considered as strongly selective if the selectivity index (SI) value is higher than 6, moderately selective if 3 < SI < 6, slightly selective if 1 < SI < 3, and non-selective if SI is lower than 1 [16].

[2] = test system: HepG2 (hepatocellular carcinoma); experiment: Cytotoxicity on HepG2 cells; type: cell-based, human; settings: ratio IC50 non-tumour cells / IC50 cancer cells
[3] = test system: Colo 205 human colonic adenocarcinoma cell line; experiment: Cytotoxicity (MTT) on sensitive Colo 205 cells; type: cell-based; settings: for IC50: Homo sapiens, COLO 205, 24 h, MTT, read-out: Colo 205 (IC50 µM) Mean; for SI MRC-5/Colo 205: ratio IC50 non-tumour cells / IC50 cancer cells
From the text: (§3) Three cell lines have been used in this study: the doxorubicin-sensitive Colo 205 (CCL-222, ATCC, Manassas, VA, USA) human colonic adenocarcinoma cell line; the multidrug resistant Colo 320/MDR-LRP expressing P-gp (MDR1)-LRP (CCL-220.1, ATCC) human colonic adenocarcinoma cell line; and the MRC-5 human embryonal lung fibroblast cell line (CCL-171, ATCC). The colon adenocarcinoma cell lines were purchased from LGC Promochem (Teddington, UK), and the MRC-5 cell line was purchased from Sigma-Aldrich (Merck KGaA, Darmstadt, Germany). Their culture conditions are as follows: Colo 205 (CCL-222, ATCC) and Colo 320/MDR-LRP expressing P-gp (MDR1)-LRP (CCL-220.1, ATCC) human colon adenocarcinoma cell lines were cultured in RPMI 1640 medium, supplemented with 10% FBS, 2 mM L-glutamine, 1 mM Na-pyruvate, and […]. The cell lines were incubated at 37 °C, 5% CO2, and 95% air atmosphere. The semi-adherent human colon cancer cells were detached with a Trypsin-Versene (EDTA) solution for 5 min at 37 °C. MRC-5 human embryonal lung fibroblast cells were cultured in EMEM containing 4.5 g/L of glucose and supplemented with a non-essential amino acid mixture, a selection of vitamins, and 10% FBS. The cell lines were incubated at 37 °C, 5% CO2, and 95% air atmosphere.
(§4) The effects of increasing concentrations of the compounds on cell growth were tested in 96-well flat-bottomed microtiter plates. Moreover, 10^4 of human colonic adenocarcinoma cells in 100 μL of the medium (RPMI-1640) were added to each well, except for the medium control wells. The adherent human embryonic lung fibroblast cell line was seeded in the EMEM medium for 4 h before the assay. The two-fold serial dilutions of the compounds were made in a separate plate (0.19–100 μM), and then transferred to the plates containing the adherent corresponding cell line. Culture plates were incubated at 37 °C for 24 h. At the end of the incubation period, 20 μL of MTT (thiazolyl blue tetrazolium bromide) solution (from a 5 mg/mL stock solution) were added to each well. After incubation at 37 °C for 4 h, 100 μL of sodium dodecyl sulfate (SDS) solution (10% SDS in 0.01 M HCl) was added to each well, and the plates were further incubated at 37 °C overnight. Cell growth was determined by measuring the optical density (OD) at 540 nm (ref. 630 nm) with a Multiscan EX ELISA reader (Thermo Labsystems, Cheshire, WA, USA). Inhibition of cell growth was expressed as IC50 values, defined as the inhibitory dose that reduces the growth of the cells exposed to the tested compounds by 50%. IC50 values and the SD of triplicate experiments were calculated by using GraphPad Prism software version 5.00 for Windows, with a non-linear regression curve fit (GraphPad Software, San Diego, CA, USA; www.graphpad.com, accessed on 12 July 2021). Doxorubicin (from a 2 mg/mL stock solution, Teva Pharmaceuticals) was used as a positive control.
as §2

[4] = test system: resistant Colo 320 colon adenocarcinoma cells expressing the ABCB1 transporter; experiment: Checkerboard combination assay with doxorubicin; type: cell-based, human
Method: A checkerboard microplate method was applied to study the effect of drug interactions between the selenocompounds and the chemotherapeutic drug doxorubicin on resistant Colo 320 colon adenocarcinoma cells expressing the ABCB1 transporter. Results were expressed in terms of the combination index (CI) values at 50% growth inhibition (ED50), which were determined by using CompuSyn software to plot 4 or 5 data points for each ratio.
To perform the experiment, the dilutions of doxorubicin were made in a horizontal direction in 100 µL, and the dilutions of the Se-compounds were made vertically in the microtiter plate in a volume of 50 µL. The cells were re-suspended in the culture medium and distributed into each well in 50 µL portions containing 6000 cells. The plates were incubated for 72 h at 37 °C in a CO2 incubator. The cell growth rate was determined after MTT staining. At the end of the incubation period, 20 μL of MTT solution was added to each well. After incubation at 37 °C for 4 h, 100 μL of SDS was added to each well and the plates were further incubated at 37 °C overnight. The optical density (OD) was measured at 540/630 nm with the Multiscan EX ELISA reader.

[5] = test system: Colo 320/MDR-LRP human colonic adenocarcinoma cell line; experiment: Cytotoxicity (MTT) on resistant Colo 320 cells; type: cell-based; settings: for IC50: Homo sapiens, COLO 320, 24 h, MTT, read-out: Colo 320 (IC50 µM) Mean; for SI MRC-5/Colo 320: ratio IC50 non-tumour cells / IC50 cancer cells
From the text: as §3, §4, §2

[6] = test system: HepG2 (hepatocellular carcinoma); experiment: Cytotoxicity on HepG2 cells; type: cell-based; settings: Homo sapiens
Method: as §1, §2

[7] = Cytotoxicity (MTT) on normal MRC-5 fibroblasts; type: cell-based; settings: human
From the text: as §3, §4

B16 (skin melanoma) = experiment: Cytotoxicity on B16 cells; type: cell-based, murine; settings: Mus musculus
Method: as §1, §2

HaCaT cell line = experiment: Toxicity on HaCaT cells (IC10 used as dose); type: cell-based; settings: Homo sapiens, concentration inhibiting 10% of the population, highest non-toxic concentration, read-out: Dose IC10
Method: as §1, with “solution. […]” for “solution.”
Wound healing activity of selenoesters was evaluated as the ability of the cells to migrate and close the gap created on the monolayer of human keratinocytes (HaCaT cell line). The tested substances were applied in the highest possible non-toxic concentration (IC10, concentration inhibiting 10% of the population). In general, ketone-selenoesters were more toxic (except K4 and K1) than cyano-selenoesters (except N4); therefore, they were applied at lower doses (0.17–0.30 µM) when compared to cyanoselenoesters (0.36–0.64 µM). Compounds K1, K4, and N4 were applied at a concentration of 0.30, 0.46, and 0.20 µM, respectively. As could be seen in Table 8, all ketone-selenoesters stimulated wound healing more effectively in comparison to both untreated control (p < 0.0000005) and allantoin (p < 0.00005). […] Only samples N1, N2, N4, and N7 closed effectively the damaged wound in 24 h, with the gap closure around 70%.

[8] = test system: human keratinocyte (HaCaT); experiment: Wound healing scratch assay; type: cell-based; settings: 50 µg/mL positive control
Method: Wound healing activity was realized using human keratinocyte (HaCaT, Thermo Fisher Scientific, Waltham, MA, USA). Wound healing was measured in vitro by scratch assay, as the migration rate of the cells to close the gap was created, as described by Ling et al., with slight modifications. Briefly, HaCaT cells at the concentration of 5×10^5 cells were seeded into 12-well plates and incubated at 37 °C and 5% CO2 until the cells formed a uniform layer. After layer formation, the cells were washed with PBS and then scratched with a sterile micropipette tip. […] The images of the scratch area were captured using an inverted microscope in 4× magnification at different time intervals (0 h, 24 h, 48 h) and evaluated using ImageJ software (National Institutes of Health, Bethesda, MD, USA). All of the experiments were performed in four replicates, and a minimum of five measurements were considered from each image captured. Dean–Dixon’s test was used to remove the outliners in the values measured, and further statistical significances between the groups were established by t-test (Excel, Microsoft Office, Redmond, WA, USA). The wound closure was calculated as the ratio of the gap size at the beginning minus the gap size at the evaluated time.

SMILES: N#CC[Se]C(=O)c1cccs1 [N1, Se-(Cyanomethyl) Thiophene-2-carboselenoate]
- IC50 [1]: 2 µM
- SI MRC-5/HepG2 [2]: >6 *
- IC50 [3]: 2.37 µM
- SI MRC-5/Colo 205 [3]: >6 *
- Interaction with doxorubicin ([4]; in at least one of the ratios tested): synergistic manner; also recorded: synergistic effect
- Type of Interaction ([4]; ratio 1.7:1, starting conc. 15 µM): Antagonism
- Type of Interaction ([4]; ratio 3.4:1, starting conc. 15 µM): Synergism
- Type of Interaction ([4]; ratio 6.8:1, starting conc. 15 µM): Synergism
- Type of Interaction ([4]; ratio 13.6:1, starting conc. 15 µM): Additive effect
- Type of Interaction ([4]; ratio 27.2:1, starting conc. 15 µM): Synergism
- IC50 [5]: 7.64 µM
- SI MRC-5/Colo 320 [5]: >6 *
- melting point: 50 to 52 °C
- IC50 [6]: 11.3 µM
- IC50 at 24 h [7]: > 100 µM
- IC50 (B16 (skin melanoma)): 1.9 µM
- IC10 (HaCaT cell line): 0.4 µM

SMILES: N#CC[Se]C(=O)c1ccc(F)c(Cl)c1 [N6, Se-(Cyanomethyl) 3-Chloro-4-fluorobenzoselenoate]
- IC50 [1]: 1.3 µM
- SI MRC-5/HepG2 [2]: >6 *
- IC50 [3]: 2.24 µM
- SI MRC-5/Colo 205 [3]: >6 *
- Type of Interaction ([4]; ratio 1.2:1, starting conc. 10 µM): Antagonism
- Type of Interaction ([4]; ratio 4.8:1, starting conc. 10 µM): Antagonism
- Type of Interaction ([4]; ratio 9.6:1, starting conc. 10 µM): Antagonism
- Type of Interaction ([4]; ratio 19.2:1, starting conc. 10 µM): Antagonism
- Type of Interaction ([4]; ratio 38.4:1, starting conc. 10 µM): Antagonism
- IC50 [5]: 5.19 µM
- SI MRC-5/Colo 320 [5]: >6 *
- melting point: 73 to 75 °C
- IC50 [6]: 9.6 µM
- IC50 at 24 h [7]: > 100 µM
- IC50 (B16 (skin melanoma)): 1.7 µM
- IC10 (HaCaT cell line): 0.6 µM

SMILES: NC(=O)NC1NC(=O)NC1=O (centres unmarked) [PC, Allantoin]
- Closure (%) 24 h ([8]; 24 h): 70.37%
- Closure (%) 48 h ([8]; 48 h): 84.63%
